Data on 14 compounds can be found in patent US10981926B2 (Janssen Pharmaceutica NV, priority 2016, dated 2021).

What all share (assay type): cell-based
Assay [1] has as its target T1, F876L mutant Androgen Receptor (AR-F876L) (Homo sapiens (Human), UniProt P10275, F877L). The assay can be described thus: LNCaP-AR-F876L ANT reporter assay (antagonist mode). The note with it: for IC50 / LNCaP-AR-F876L ANT pIC50: pIC50 = −Log10(IC50 in Molar); for IC50: read-out: LNCaP-AR-F876L ANT pIC50 (converted); for Emax: read-out: LNCaP-AR-F876L ANT MAX % Inh. A general note: A reporter such as luciferase makes a cellular process visible.

Assay [2] concerns the target T2, wild-type Androgen Receptor (AR-wt) (Homo sapiens (Human), UniProt P10275). The assay can be described thus: LNCaP-AR-wt ANT reporter assay (antagonist mode). The note with it: for IC50 / LNCaP-AR-wt ANT pIC50: pIC50 = −Log10(IC50 in Molar); for IC50: read-out: LNCaP-AR-wt ANT pIC50 (converted); for Emax: read-out: LNCaP-AR-wt ANT MAX % Inh.
Assay [3] addresses T2, wild-type Androgen Receptor (AR-wt). The assay can be described thus: LNCaP-AR-wt AG reporter assay (agonist mode). The following applies: for EC50: read-out: LNCaP-AR-wt AG pEC50 (converted); for Emax: read-out: LNCaP-AR-wt AG MAX % Stim.
Assay [4] deals with T1, F876L mutant Androgen Receptor (AR-F876L). The assay can be described thus: LNCaP-AR-F876L AG reporter assay (agonist mode). The following applies: for EC50: read-out: LNCaP-AR-F876L AG pEC50 (converted); for Emax: read-out: LNCaP-AR-F876L AG MAX % Stim.
[5] abbreviates: maximum % inhibition of R1881 control response over the tested concentration range.
Where [6] appears, read: agonist mode, pEC50 = −Log10(EC50 in Molar).
Setting [7] is: maximum % stimulation (agonist response) over the tested concentration range.
Where [8] appears, read: antagonist mode, maximum % inhibition of R1881 control response over tested concentration range.
The mark [9] stands for this setting: agonist mode, maximum % stimulation over tested concentration range.

T2 sequence (P10275 whole entry): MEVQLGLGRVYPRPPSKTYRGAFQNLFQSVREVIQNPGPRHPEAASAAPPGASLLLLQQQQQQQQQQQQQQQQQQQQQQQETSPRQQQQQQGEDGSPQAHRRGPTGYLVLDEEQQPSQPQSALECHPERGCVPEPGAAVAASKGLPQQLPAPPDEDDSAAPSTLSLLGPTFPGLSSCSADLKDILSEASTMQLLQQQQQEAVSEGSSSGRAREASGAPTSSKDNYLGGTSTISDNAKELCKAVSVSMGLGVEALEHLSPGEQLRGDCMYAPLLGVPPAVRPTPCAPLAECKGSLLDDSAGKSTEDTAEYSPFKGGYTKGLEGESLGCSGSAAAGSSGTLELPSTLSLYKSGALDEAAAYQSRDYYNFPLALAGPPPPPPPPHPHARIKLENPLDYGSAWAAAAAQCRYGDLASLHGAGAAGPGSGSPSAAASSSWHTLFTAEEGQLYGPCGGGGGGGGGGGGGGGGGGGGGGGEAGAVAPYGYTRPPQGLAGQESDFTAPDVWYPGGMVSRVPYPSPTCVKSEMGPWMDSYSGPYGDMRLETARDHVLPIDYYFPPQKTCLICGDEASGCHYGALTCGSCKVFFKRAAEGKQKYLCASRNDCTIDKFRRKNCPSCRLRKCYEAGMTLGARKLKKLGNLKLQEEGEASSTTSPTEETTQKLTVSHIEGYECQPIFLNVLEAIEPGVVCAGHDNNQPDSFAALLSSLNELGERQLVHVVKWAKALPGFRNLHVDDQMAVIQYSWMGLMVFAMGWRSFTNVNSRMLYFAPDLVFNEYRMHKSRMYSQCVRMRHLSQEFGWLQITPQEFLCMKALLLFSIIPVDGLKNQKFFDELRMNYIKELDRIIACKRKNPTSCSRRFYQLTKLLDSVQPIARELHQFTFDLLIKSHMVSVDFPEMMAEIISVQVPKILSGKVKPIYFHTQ
T1 sequence (P10275 whole entry F877L): as the sequence (P10275 whole entry) above, with F877L counted along it

On to `N#Cc1ncc(N2C(=O)C3(CCC3)N(c3ccc4c(cnn4CCO)c3)C2=S)cc1C(F)(F)F` [Cpd 159, 5-[8-[1-(2-hydroxyethyl)indazol-5-yl]-5-oxo-7-thioxo-6,8-diazaspiro[3.4]octan-6-yl]-3-(trifluoromethyl)pyridine-2-carbonitrile], for which the IC50 in assay [1] (antagonist mode) is 0.309 µM; in assay [2] (antagonist mode) it was 1.35 µM. Moreover, the Emax in assay [1] (setting [5]) came to 100%; in assay [2] (setting [5]), 100%; in assay [3] (setting [7]) it was 0.2%; in assay [4] (setting [7]), 0.2%. The EC50 in assay [3] (setting [6]) and in assay [4] (setting [6]) was > 15.1 µM each time.
Take `CN1CC[C@@H](CNC(=O)c2ccc(N3C(=S)N(c4cnc(C#N)c(C(F)(F)F)c4)C(=O)C34CCC4)cc2)C1` [Cpd 187, 4-[6-[6-cyano-5-(trifluoromethyl)-3-pyridyl]-5-oxo-7-thioxo-6,8-diazaspiro[3.4]octan-8-yl]-N-[[(3S)-1-methylpyrrolidin-3-yl]methyl]benzamide]: the Emax in assay [1] (setting [8]) turned out to be 101%; in assay [2] (setting [8]) it was 101%; in assay [3] (setting [9]), 0.3%; in assay [4] (setting [9]), 0.2%. The IC50 in assay [1] (antagonist mode) is 0.513 µM; in assay [2] (antagonist mode), 1.26 µM. The EC50 in assay [3] (setting [6]) and in assay [4] (setting [6]) was > 15.1 µM throughout.
As for `CNC(=O)Cc1ccc(N2C(=S)N(c3cnc(C#N)c(C)c3)C(=O)C23CCC3)cc1` [Cpd 8, 2-{4-[7-(6-cyano-5-methyl(3-pyridyl))-8-oxo-6-thioxo-5,7-diazaspiro[3.4]oct-5-yl]phenyl}-N-methylacetamide], the figures for the IC50 in assay [1] (antagonist mode) and in assay [2] (antagonist mode) were 1.15 µM and 1.17 µM, respectively. Further, the Emax in assay [1] (setting [5]) was 96%; in assay [2] (setting [5]) it was 86.6%; in assay [3] (setting [7]), 0.4%; in assay [4] (setting [7]), -0.1%. The EC50 in assay [3] (setting [6]) and in assay [4] (setting [6]) was > 15.1 µM in each case.
Take `N#Cc1ncc(N2C(=O)C3(CCC3)N(c3ccc(C(=O)NC[C@@H]4CCCNC4)cc3)C2=S)cc1C(F)(F)F` [Cpd 186, 4-[6-[6-cyano-5-(trifluoromethyl)-3-pyridyl]-5-oxo-7-thioxo-6,8-diazaspiro[3.4]octan-8-yl]-N-[[(3R)-3-piperidyl]methyl]benzamide]: the Emax came to 100% in assay [1] (setting [8]), 99.8% in assay [2] (setting [8]), 0.1% in assay [3] (setting [9]) and 0% in assay [4] (setting [9]). Moreover, the results for the IC50 in assay [1] (antagonist mode) and in assay [2] (antagonist mode) were 2.24 µM and 3.16 µM, respectively. The EC50 in assay [3] (setting [6]) and in assay [4] (setting [6]) was > 15.1 µM throughout.
`C=CCN1CCC(Oc2ccc(N3C(=S)N(c4cnc(C#N)c(C)c4)C(=O)C34CCC4)cn2)CC1` [Cpd 99, 5-[8-[6-[(1-allyl-4-piperidyl)oxy]-3-pyridyl]-5-oxo-7-thioxo-6,8-diazaspiro[3.4]octan-6-yl]-3-methyl-pyridine-2-carbonitrile]: the IC50 is 0.0724 µM in assay [1] (antagonist mode) and 0.174 µM in assay [2] (antagonist mode). The Emax in assay [1] (setting [5]) amounted to 99.7%; in assay [2] (setting [5]) it was 101%; in assay [3] (setting [7]), 0.5%; in assay [4] (setting [7]), 0.2%. Besides, the EC50 in assay [3] (setting [6]) and in assay [4] (setting [6]) was > 15.1 µM each time.
On to `N#Cc1ncc(N2C(=O)C3(CCC3)N(c3ccc4c(ccn4CCO)c3)C2=S)cc1C(F)(F)F` [Cpd 248, 5-[8-[1-(2-hydroxyethyl)indol-5-yl]-5-oxo-7-thioxo-6,8-diazaspiro[3.4]octan-6-yl]-3-(trifluoromethyl)pyridine-2-carbonitrile], for which the Emax in assay [1] (setting [8]) came to 102%; in assay [2] (setting [8]), 0%; in assay [3] (setting [9]) it was 0%; in assay [4] (setting [9]), 0.4%. Further, the IC50 in assay [1] (antagonist mode) was 0.372 µM; in assay [2] (antagonist mode) it was 0.417 µM. Also, the EC50 in assay [3] (setting [6]) and in assay [4] (setting [6]) was > 15.1 µM in each case.
As for `CN1CC[C@@H](Oc2ccc(N3C(=S)N(c4cnc(C#N)c(C(F)(F)F)c4)C(=O)C34CCC4)cc2)C1` [Cpd 16, 5-[8-[4-[(3R)-1-methylpyrrolidin-3-yl]oxyphenyl]-5-oxo-7-thioxo-6,8-diazaspiro[3.4]octan-6-yl]-3-(trifluoromethyl)pyridine-2-carbonitrile], the IC50 in assay [1] (antagonist mode) is 0.363 µM; in assay [2] (antagonist mode) it was 1.12 µM. The Emax worked out at 97.5% in assay [1] (setting [5]), 98.8% in assay [2] (setting [5]), 0.5% in assay [3] (setting [7]) and 0.8% in assay [4] (setting [7]). The EC50 in assay [3] (setting [6]) and in assay [4] (setting [6]) was > 15.1 µM each time.
On to `N#Cc1ncc(N2C(=O)C3(CCC3)N(C3CCC(NC(=O)c4ccccc4)CC3)C2=S)cc1C(F)(F)F` (stereo not drawn) [Cpd 134, N-[4-[6-[6-cyano-5-(trifluoromethyl)-3-pyridyl]-5-oxo-7-thioxo-6,8-diazaspiro[3.4]octan-8-yl]cyclohexyl]benzamide], for which the IC50 in assay [1] (antagonist mode) is 0.339 µM; in assay [2] (antagonist mode), 0.759 µM. In addition, the EC50 in assay [3] (setting [6]) and in assay [4] (setting [6]) was > 15.1 µM in each case.
As to `CC(C)(C)OC(=O)N1CCc2cc(N3C(=S)N(c4cnc(C#N)c(C(F)(F)F)c4)C(=O)C34CCC4)ccc2C1` [Cpd 118, tert-butyl 6-[6-[6-cyano-5-(trifluoromethyl)-3-pyridyl]-5-oxo-7-thioxo-6,8-diazaspiro[3.4]octan-8-yl]-3,4-dihydro-1H-isoquinoline-2-carboxylate], the IC50 in assay [1] (antagonist mode) was 0.676 µM; in assay [2] (antagonist mode), 0.49 µM. In addition, the Emax turned out to be 93.7% in assay [1] (setting [5]), 101% in assay [2] (setting [5]), 0.1% in assay [3] (setting [7]) and 0.8% in assay [4] (setting [7]). The EC50 in assay [3] (setting [6]) and in assay [4] (setting [6]) was > 15.1 µM throughout.
As for `CN1CCC(n2ccc3cc(N4C(=S)N(c5cnc(C#N)c(C(F)(F)F)c5)C(=O)C45CCC5)ccc32)CC1` [Cpd 251, 5-[8-[1-(1-methyl-4-piperidyl)indol-5-yl]-5-oxo-7-thioxo-6,8-diazaspiro[3.4]octan-6-yl]-3-(trifluoromethyl)pyridine-2-carbonitrile], the Emax in assay [1] (setting [8]) was 101%; in assay [2] (setting [8]), 0%; in assay [3] (setting [9]), -0.1%; in assay [4] (setting [9]) it was 0.1%. In addition, the IC50 in assay [1] (antagonist mode) was 0.174 µM; in assay [2] (antagonist mode) it was 0.288 µM. In addition, the EC50 in assay [3] (setting [6]) and in assay [4] (setting [6]) was > 15.1 µM in each case.
On to “3-chloro-5-[8-[1-(2-methoxyethyl)indazol-5-yl]-5-oxo-7-thioxo-6,8-diazaspiro[3.4]octan-6-yl]pyridine-2-carbonitrile [Cpd 171]”, for which the “LNCaP-AR-F876L ANT pIC50” value in assay [1] (antagonist mode) turned out to be 6.80. The “LNCaP-AR-F876L ANT MAX % Inh” value in assay [1] (setting [5]) came out at 100.8%. Further, in assay [2] (antagonist mode), the “LNCaP-AR-wt ANT pIC50” value was found to be 6.45. Also, in assay [2] (setting [5]), the “LNCaP-AR-wt ANT MAX % Inh” value is on record as 101.3%. Further, the “LNCaP-AR-wt AG pEC50” value in assay [3] (setting [6]) is reported as <4.82. For the same compound, the “LNCaP-AR-wt AG MAX % Stim” value in assay [3] (setting [7]) was 0.2%. Also, in assay [4] (setting [6]), the “LNCaP-AR-F876L AG pEC50” value was <4.82. The “LNCaP-AR-F876L AG MAX % Stim” value in assay [4] (setting [7]) was 0.1%.
`COCc1ccc(-c2ccc(N3C(=S)N(c4cnc(C#N)c(C)c4)C(=O)C34CCC4)cc2)o1` [Cpd 6, 5-(8-{4-[5-(methoxymethyl)(2-furyl)]phenyl}-5-oxo-7-thioxo-6,8-diazaspiro[3.4]oct-6-yl)-3-methylpyridine-2-carbonitrile]: the IC50 is 0.191 µM in assay [1] (antagonist mode) and 0.295 µM in assay [2] (antagonist mode). Moreover, the Emax came to 98.1% in assay [1] (setting [5]), 99.7% in assay [2] (setting [5]), 0.3% in assay [3] (setting [7]) and 0.9% in assay [4] (setting [7]). Also, the EC50 in assay [3] (setting [6]) and in assay [4] (setting [6]) was > 15.1 µM in each case.
`CN1CC[C@H](CNC(=O)c2ccc(N3C(=S)N(c4cnc(C#N)c(C(F)(F)F)c4)C(=O)C34CCC4)cc2)C1` [Cpd 206, 4-[6-[6-cyano-5-(trifluoromethyl)-3-pyridyl]-5-oxo-7-thioxo-6,8-diazaspiro[3.4]octan-8-yl]-N-[[(3R)-1-methylpyrrolidin-3-yl]methyl]benzamide]: the Emax in assay [1] (setting [8]) was 99.3%; in assay [2] (setting [8]), 101%; in assay [3] (setting [9]), 0.1%; in assay [4] (setting [9]), 0.1%. The IC50 was 0.617 µM in assay [1] (antagonist mode) and 0.851 µM in assay [2] (antagonist mode). Moreover, the EC50 in assay [3] (setting [6]) and in assay [4] (setting [6]) was > 15.1 µM throughout.
For `N#Cc1ncc(N2C(=O)C3(CCC3)N(c3ccc(O)nc3)C2=S)cc1C(F)(F)F` [Cpd 18, 5-[8-(6-hydroxy-3-pyridyl)-5-oxo-7-thioxo-6,8-diazaspiro[3.4]octan-6-yl]-3-(trifluoromethyl)pyridine-2-carbonitrile], the “LNCaP-AR-F876L ANT pIC50” value in assay [1] (antagonist mode) is reported as 6.00. The Emax in assay [1] (setting [5]) is 99%; in assay [2] (setting [5]), 93.5%; in assay [3] (setting [7]), 0%; in assay [4] (setting [7]), 0%. For the same compound, the “LNCaP-AR-wt ANT pIC50” value in assay [2] (antagonist mode) is 5.65. Further, the EC50 in assay [3] (setting [6]) and in assay [4] (setting [6]) was > 15.1 µM each time.
